Measured values taken from patent US9695155B2, “Herbicidal substituted pyrimidinyloxy benzene compounds” (E. I. DU PONT DE NEMOURS AND COMPANY, priority 2013, dated 2017).

Legend:
barnyardgrass [1] = assay: Test A preemergence; type: in vivo, Echinochloa crus-galli; conditions: for Barnyardgrass plant response rating (0 to 100 scale): 31 g ai/ha; for Plant response rating, Barnyardgrass: 125 g ai/ha, 0 to 100 scale where 0 is no effect and 100 is complete control
In short: (§1)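 Pre- and postemergence greenhouse screen. Soil: loam + sand. Spray carrier: solvent mixture, non-phytotoxic, with surfactant. Post timing at 1–2 leaves, height 2–10 cm. Readout: visual injury on a 0–100 scale roughly 10 days after application, untreated plants as reference.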

kochia [2] = assay: Test A preemergence; type: in vivo, Kochia scoparia; conditions: for Kochia plant response rating (0 to 100 scale): 31 g ai/ha; for Plant response rating, Kochia: 125 g ai/ha, 0 to 100 scale where 0 is no effect and 100 is complete control
In short: as §1

ragweed [3] = assay: Test A preemergence; type: in vivo, Ambrosia elatior; conditions: for Ragweed plant response rating (0 to 100 scale): 31 g ai/ha; for Plant response rating, Ragweed: 125 g ai/ha, 0 to 100 scale where 0 is no effect and 100 is complete control
In short: as §1

Italian ryegrass [4] = assay: Test A preemergence; type: in vivo, Lolium multiflorum; conditions: for Ryegrass, Italian plant response rating (0 to 100 scale): 31 g ai/ha; for Plant response rating, Ryegrass, Italian: 125 g ai/ha, 0 to 100 scale where 0 is no effect and 100 is complete control
In short: as §1

giant foxtail [5] = assay: Test A preemergence; type: in vivo, Setaria faberii; conditions: for Foxtail, Giant plant response rating (0 to 100 scale): 31 g ai/ha; for Plant response rating, Foxtail, Giant: 125 g ai/ha, 0 to 100 scale where 0 is no effect and 100 is complete control
In short: as §1

pigweed [6] = assay: Test A preemergence; type: in vivo, Amaranthus retroflexus; conditions: for Pigweed plant response rating (0 to 100 scale): 31 g ai/ha; for Plant response rating, Pigweed: 125 g ai/ha, 0 to 100 scale where 0 is no effect and 100 is complete control
In short: as §1

barnyardgrass [7] = assay: Test A postemergence; type: in vivo, Echinochloa crus-galli
In short: as §1

kochia [8] = assay: Test A postemergence; type: in vivo, Kochia scoparia
In short: as §1

ragweed [9] = assay: Test A postemergence; type: in vivo, Ambrosia elatior; conditions: for Plant response rating, Ragweed: 31 g ai/ha, 0 to 100 scale, 0 no effect, 100 complete control
In short: as §1

Italian ryegrass [10] = assay: Test A postemergence; type: in vivo, Lolium multiflorum; conditions: for Plant response rating, Ryegrass, Italian: 31 g ai/ha, 0 to 100 scale, 0 no effect, 100 complete control
In short: as §1

giant foxtail [11] = assay: Test A postemergence; type: in vivo, Setaria faberii
In short: as §1

pigweed [12] = assay: Test A postemergence; type: in vivo, Amaranthus retroflexus; conditions: for Plant response rating, Pigweed: 31 g ai/ha, 0 to 100 scale, 0 no effect, 100 complete control
In short: as §1

wheat = assay: Test A postemergence; type: in vivo, Triticum aestivum; conditions: for Plant response rating, Wheat: 31 g ai/ha, 0 to 100 scale, 0 no effect, 100 complete control
In short: as §1

corn = assay: Test A postemergence; type: in vivo, Zea mays
In short: as §1

blackgrass = assay: Test A postemergence; type: in vivo, Alopecurus myosuroides
In short: as §1

galium = assay: Test A postemergence; type: in vivo, Galium aparine
In short: as §1

rice = assay: Test B flooded paddy test; type: in vivo, Oryza sativa; conditions: Flood, 250 g ai/ha; 0 to 100 scale where 0 is no effect and 100 is complete control
In short: (§2)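 Greenhouse flooded-pot test: compounds dosed into 3 cm standing water over 2-leaf plants, flood held constant. Rated visually after 13–15 days on 0–100 (complete control = 100); a dash marks no test result.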

sedge, umbrella = assay: Test B flooded paddy test; type: in vivo, Cyperus difformis; conditions: Flood, 250 g ai/ha; 0 to 100 scale where 0 is no effect and 100 is complete control
In short: as §2

Heteranthera limosa = assay: Test B flooded paddy test; type: in vivo; conditions: Flood, 250 g ai/ha; 0 to 100 scale where 0 is no effect and 100 is complete control
In short: as §2

barnyardgrass [13] = assay: Test B flooded paddy test; type: in vivo, Echinochloa crus-galli; conditions: Flood, 250 g ai/ha; 0 to 100 scale where 0 is no effect and 100 is complete control
In short: as §2

[14] = 31 g ai/ha, 0 to 100 scale, 0 no effect, 100 complete control
[15] = 125 g ai/ha, 0 to 100 scale where 0 is no effect and 100 is complete control

Compound | Barnyardgrass plant response rating (0 to 100 scale) (barnyardgrass [1]) | Plant response rating, Barnyardgrass (barnyardgrass [1]) | Kochia plant response rating (0 to 100 scale) (kochia [2]) | Plant response rating, Kochia (kochia [2]) | Ragweed plant response rating (0 to 100 scale) (ragweed [3]) | Plant response rating, Ragweed (ragweed [3]) | Ryegrass, Italian plant response rating (0 to 100 scale) (Italian ryegrass [4]) | Plant response rating, Ryegrass, Italian (Italian ryegrass [4]) | Foxtail, Giant plant response rating (0 to 100 scale) (giant foxtail [5]) | Plant response rating, Foxtail, Giant (giant foxtail [5]) | Pigweed plant response rating (0 to 100 scale) (pigweed [6]) | Plant response rating, Pigweed (pigweed [6]) | Plant response rating, Barnyardgrass (barnyardgrass [7]; [14]) | Plant response rating, Kochia (kochia [8]; [14]) | Plant response rating, Ragweed (ragweed [9]) | Plant response rating, Ryegrass, Italian (Italian ryegrass [10]) | Plant response rating, Foxtail, Giant (giant foxtail [11]; [14]) | Plant response rating, Pigweed (pigweed [12]) | Plant response rating, Wheat (wheat) | Plant response rating, Corn (corn; [14]) | also measured
FC(F)(F)COc1cnn(-c2c(Cl)cccc2Oc2ncc(Cl)cn2)c1 [Compound 110] | 30 | 90 | 20 | 80 | 0 | 10 | 0 | 20 | 100 | 100 | 100 | 100 | 10 | 90 | 10 | 0 | 20 | 100 | 0 | 10 | Plant response rating, Barnyardgrass (barnyardgrass [7]; [15]): 90; Plant response rating, Kochia (kochia [8]; [15]): 100; Plant response rating, Foxtail, Giant (giant foxtail [11]; [15]): 90; Plant response rating, Corn (corn; [15]): 50; Plant response rating, Blackgrass (blackgrass; [14]): 20; Plant response rating, Blackgrass (blackgrass; [15]): 80; Plant response rating, Galium (galium; [14]): 40; Plant response rating, Galium (galium; [15]): 90; Plant response rating, Rice (rice): 0; Plant response rating, Sedge, Umbrella (sedge, umbrella): 95; Plant response rating, Ducksalad (Heteranthera limosa): 95; Plant response rating, Barnyardgrass (barnyardgrass [13]): 45
FC(F)Oc1cnn(-c2c(Br)cccc2Oc2ncc(Cl)cn2)c1 [Compound 122] | 10 | 70 | 20 | 100 | 0 | 0 | 0 | 0 | 50 | 100 | 80 | 100 | 10 | 50 | 10 | 0 | 10 | 70 | 0 | 10 | Barnyardgrass plant response rating (barnyardgrass [7]; [15]): 40; Kochia plant response rating (kochia [8]; [15]): 90; Ragweed plant response rating (ragweed [9]; [15]): 30; Ryegrass, Italian plant response rating (Italian ryegrass [10]; [15]): 20; Foxtail, Giant plant response rating (giant foxtail [11]; [15]): 60; Pigweed plant response rating (pigweed [12]; [15]): 100; Wheat plant response rating (wheat; [15]): 10; Corn plant response rating (corn; [15]): 30; Plant response rating, Blackgrass (blackgrass; [14]): 30; Blackgrass plant response rating (blackgrass; [15]): 80; Plant response rating, Galium (galium; [14]): 20; Galium plant response rating (galium; [15]): 40; Plant response rating, Rice (rice): 0; Plant response rating, Sedge, Umbrella (sedge, umbrella): 75; Plant response rating, Ducksalad (Heteranthera limosa): 80; Plant response rating, Barnyardgrass (barnyardgrass [13]): 0
